We go through six compounds from publication PMC12649408 (Antibiotics, 2025).

Test in data set [1]: not given
The source holds these as a separate data set.

Test in data set [2]: not given
This is another data set of the same source.

Test in data set [3]: not given
The source holds these as a separate data set.

Test in data set [4]: not given
The source holds these as a separate data set.

Test in data set [5]: not given
This is another data set of the same source.

Test in data set [6]: not given
The source holds these as a separate data set.

Test in data set [7]: not given
The source holds these as a separate data set.

Test in data set [8]: not given
The source holds these as a separate data set.

Test in data set [9]: not given
The source holds these as a separate data set.

Test in data set [10]: not given
This is another data set of the same source.

Test in data set [11]: not given
This is another data set of the same source.

Another data set has as its system Caco-2 cell monolayer. The data set is described as follows: Cytotoxicity assay, resazurin method. Format: cell-based, human. To be noted: for СС50 Caco-2: Table S2, monolayer, 24 h in RPMI-1640, resazurin, twice in duplicate. As for the experimental part:
(§1) Cytotoxic activity of the peptides was investigated against human peripheral blood mononuclear cells (PBMCs) and the Caco-2 epithelial monolayer as an in vitro model of the intestinal barrier using a RPMI-1640 medium and resazurin-test.
(§2) In brief, Caco-2 cells in a monolayer or 2 × 10^6 PBMCs per well were incubated with serial dilutions of the peptides for 24 h in RPMI-1640. Resazurin (Sigma, St. Louis, MO, USA) was then added at a final concentration of 70 µM and the plates were incubated for 20 h. Untreated cells (F0) and cells treated by 0.1% Triton X-100 (Sigma-Aldrich) (Fcontrol) were used as negative and positive controls, respectively. Cell viability was assessed by resorufin fluorescence using a 535/595 nm filter and a PlateReader AF2200 as ((Fsample − F0)/(Fcontrol − F0)) × 100%. […] The experiment was carried out twice in duplicate.

In another data set the test system is PBMCs. As to the kind of experiment: Cytotoxicity assay, resazurin method. Format: cell-based, human. To be noted: Table S2; 24 h in RPMI-1640, resazurin, twice in duplicate. As for the experimental part: as §1, §2
Data set [12] relates to human red blood cells (hRBCs). To be noted: Table S2; 4% v/v hRBCs in PBS, 2 h, 37 °C. As for the experimental part: All procedures were approved by the Ethics Committee of the Institute of Experimental Medicine (protocol 1/20 of 2/27/2020) and comply with the ethical principles of the Declaration of Helsinki. […] Samples were centrifuged to sediment intact red blood cells. Supernatants containing released hemoglobin were transferred to 96-well microplates, and absorbance was measured at 405 nm. Untreated hRBCs in PBS (A0) and hRBC treated with 0.1% Triton X-100 (Sigma-Aldrich) (Acontrol) were used as negative and positive controls, respectively. The percentage of hemolysis was calculated as [(Asample − A0)/(Acontrol − A0)] × 100%. The experiment was carried out twice in duplicate.

For data set [13], the system named is C. albicans clinical isolate 8.2. To be noted: Table 2; resistant clinical isolate 8.2; Sabouraud broth, 30 °C, 24 h, 100% inhibition. As for the experimental part: (§3) Using the two-fold serial dilution method, antifungal activities of the obtained analogues were tested against different C. albicans strains: susceptible collection strain ATCC 18804; resistant to azoles and anidulafungin collection strain ATCC 10231 and clinical isolates 9.1 and 8.2 [7].
(§4) The antifungal assay was performed by the microdilution method using 96-well microplates and Sabouraud broth as described earlier. […] After that, the plates were incubated at 30 °C for 24 h. A control without antifungals was also tested. Fungal growth was evaluated by measuring absorbance at 630 nm. […] All the experiments were performed twice in triplicate. Microscopic analysis of fungal growth was performed using inverted microscopy (Olympus, Tokyo, Japan). A 0.1% BSA solution was used for the blocking of each microplates well to prevent the adsorption of antifungal agents.

In another data set the test system is C. albicans ATCC 10231. To be noted: Table 2; strain resistant to azoles and anidulafungin; Sabouraud broth, 30 °C, 24 h, 100% inhibition. As for the experimental part:
as §3, §4

The next data set concerns C. albicans ATCC 18804. To be noted: Sabouraud broth. As for the experimental part:
as §3, §4

The test system of data set [14] is C. albicans clinical isolate 9.1. To be noted: Table 2; resistant clinical isolate 9.1; Sabouraud broth, 30 °C, 24 h, 100% inhibition. As for the experimental part:
as §3, §4

[15] abbreviates: Caco-2 monolayer, RPMI-1640, resazurin-test.

Like-named read-outs stand apart in the source and are kept apart here. Bridge positions count the residues as written; N and C are the ends. Ends that are not written are not given here.

For “H-RECKTESNTFPGICITKPPCRKACISEKFTDGHCSKILRRCLCRRPC-OH (disulfide 3-47, 14-34, 20-41, 24-43)”, the β-Sheet, aqueous solution was 29.8%. In addition, the Random, aqueous solution in data set [1] was found to be 38.9%. Besides, in [2], the Random, DPC micelles is 31.1%. For the same compound, in data set [3], the β-Sheet, DPC micelles stood at 30.4%. The same compound had a Random, SDS micelles in data set [4] of 32.5%. In addition, the β-Sheet, SDS micelles in data set [5] was 28.5%. This compound also yielded a β-Turn, SDS micelles in [6] of 22.7%. The same compound had a α-Helix, aqueous solution in data set [7] of 7.6%. The same compound registered a β-Turn, DPC micelles in data set [8] of 22.6%. Further, the α-Helix, DPC micelles in [9] was found to be 15.8%. The α-Helix, SDS micelles in data set [10] was determined as 16.2%. This compound yielded a β-Turn, aqueous solution in [11] of 23.7%.

With `CC[C@H](C)[C@H](NC(=O)CN)C(=O)NCC(=O)N[C@@H](C)C(=O)N[C@H](C(=O)N[C@@H](CC(C)C)C(=O)N[C@@H](CCCCN)C(=O)N[C@H](C(=O)N[C@@H](CC(C)C)C(=O)N[C@H](C(=O)N[C@H](C(=O)NCC(=O)N[C@@H](CC(C)C)C(=O)N1CCC[C@H]1C(=O)N[C@@H](C)C(=O)N[C@@H](CC(C)C)C(=O)N[C@H](C(=O)N[C@@H](CO)C(=O)N[C@@H](Cc1c[nH]c2ccccc12)C(=O)N[C@H](C(=O)N[C@@H](CCCCN)C(=O)N[C@@H](CCCNC(=N)N)C(=O)N[C@@H](CCCCN)C(=O)N[C@@H](CCCNC(=N)N)C(=O)N[C@@H](CCC(N)=O)C(=O)N[C@@H](CCC(N)=O)C(N)=O)[C@@H](C)CC)[C@@H](C)CC)[C@@H](C)O)[C@@H](C)O)C(C)C)C(C)C` [melittin], in the data set with Caco-2 cell monolayer (setting [15]), the “concentration at which cell viability was 0% (100% cell death)” value was about 12.5 µM and the “concentration at which cell viability was 50%” value was about 2.5 µM. Besides, the “СС50 Caco-2” value in the data set with Caco-2 cell monolayer is on record as 2.35 µM. For the same compound, the “СС50 PBMCs” value with PBMCs amounted to 6.10 µM.

With “H-RECKTESNTFPGICITKPPCRKACISEKFTDGHCSKIRRRCLCTKPC-OH (disulfide 3-47, 14-34, 20-41, 24-43)”, the β-Sheet, aqueous solution was 34.3%. The compound further yielded a Random, aqueous solution in [1] of 36.2%. The compound further showed a Random, DPC micelles in data set [2] of 32.9%. In [3], the β-Sheet, DPC micelles came out at 31.1%. Moreover, the Random, SDS micelles in data set [4] was 31.2%. The compound also had a β-Sheet, SDS micelles in [5] of 32.8%. The compound also had a β-Turn, SDS micelles in [6] of 21.8%. The compound also showed a α-Helix, aqueous solution in [7] of 8.3%. The compound also came in with a β-Turn, DPC micelles in data set [8] of 20.5%. Besides, the α-Helix, DPC micelles in [9] stood at 15.5%. In data set [10], this compound registered a α-Helix, SDS micelles of 14.2%. The compound also displayed a β-Turn, aqueous solution in [11] of 21.2%.

Regarding “H-RECKTESNTFPGICITKPPCRKACISEKFTDGHCSKIRRRCLCRRPC-OH (disulfide 3-47, 14-34, 20-41, 24-43)”, the β-Sheet, aqueous solution came out at 30.7%. In [1], this compound displayed a Random, aqueous solution of 37.7%. Also, in data set [2], the Random, DPC micelles was found to be 32.9%. In [3], this compound displayed a β-Sheet, DPC micelles of 31.2%. The compound further displayed a Random, SDS micelles in data set [4] of 31%. The compound also returned a β-Sheet, SDS micelles in data set [5] of 30.8%. The same compound came in with a β-Turn, SDS micelles in [6] of 21.7%. The compound further had a α-Helix, aqueous solution in data set [7] of 8.9%. In data set [8], this compound gave a β-Turn, DPC micelles of 21.7%. Besides, the α-Helix, DPC micelles in [9] was found to be 14.1%. This compound also yielded a α-Helix, SDS micelles in data set [10] of 16.6%. For the same compound, the β-Turn, aqueous solution in data set [11] turned out to be 22.7%.

“RECKTESNTFPGICITKPPCRKACISEKFTDGHCRGFRRRCLCTKPC (disulfide 3-47, 14-34, 20-41, 24-43) [NaD1-L5]” returned a β-Sheet, aqueous solution of 22.9%. The “СС50 Caco-2” value with Caco-2 cell monolayer is on record as over 150 µM. In addition, the “cytotoxic effects on Caco-2 cells” value in the data set with Caco-2 cell monolayer (in words, at a concentration of 150 µM) was “practically no cytotoxic effects”. Besides, the “Hemolysis at 100 µM” value in data set [12] was “no hemolysis”. Also, the Random, aqueous solution in data set [1] stood at 39.3%. The compound also returned a Random, DPC micelles in data set [2] of 35.5%. Besides, the β-Sheet, DPC micelles in data set [3] amounted to 24.1%. In [4], this compound gave a Random, SDS micelles of 35.9%. Also, the β-Sheet, SDS micelles in [5] stood at 23%. The same compound showed a β-Turn, SDS micelles in data set [6] of 23.4%. Further, the α-Helix, aqueous solution in [7] was found to be 13.5%. The same compound gave a β-Turn, DPC micelles in [8] of 22.3%. Besides, the α-Helix, DPC micelles in data set [9] came to 18.2%. Besides, the MIC in [13] amounted to 25 µM. In the data set with C. albicans ATCC 10231, this compound registered an MIC of 6.25 µM. Besides, the IC50 with C. albicans ATCC 18804 (50 mM NaCl, 50% inhibition) lay within 25 to 50 µM. The compound further yielded an MIC against C. albicans ATCC 18804 (50 mM NaCl, 100% inhibition) of 50 µM. In the data set with C. albicans ATCC 18804 (150 mM NaCl, 50% inhibition), the IC50 is over 50 µM. Besides, the MIC against C. albicans ATCC 18804 (150 mM NaCl, 100% inhibition) is over 50 µM. In addition, in the data set with C. albicans ATCC 18804 (Table 2, 30 °C, 24 h, 100% inhibition of fungal growth, absorbance 630 nm, two-fold dilutions, twice in triplicate), the MIC stood at 6.25 µM. Further, the IC50 in the data set on C. albicans ATCC 18804 (Table 3, No Salts, 50% inhibition of fungal growth) was 3.13 to 6.25 µM. Further, in the data set on C. albicans ATCC 18804 (Table 3, No Salts, 100% inhibition of fungal growth), the minimum inhibitory concentration (MIC) turned out to be 6.25 µM. In the data set with C. albicans ATCC 18804 ([…] CaCl2, 50% inhibition), this compound returned an IC50 of 25 to 50 µM. The MIC in the data set with C. albicans ATCC 18804 ([…] CaCl2, 100% inhibition) was 50 µM. The IC50 with C. albicans ATCC 18804 ([…] MgCl2, 50% inhibition) was in the range of 12.5 to 25 µM. Also, in the data set on C. albicans ATCC 18804 ([…] MgCl2, 100% inhibition), the MIC was 50 µM. In addition, in [14], the MIC is 6.25 µM. In [10], this compound gave a α-Helix, SDS micelles of 17.8%. Also, in data set [11], the β-Turn, aqueous solution was determined as 24.3%.

Compound “H-RECKTESNTFPGICITKPPCRKACISEKFTDGHCSRIRRRCLCTKPC-OH (disulfide 3-47, 14-34, 20-41, 24-43)” registered a β-Sheet, aqueous solution of 36.8%. The same compound had a Random, aqueous solution in data set [1] of 35.6%. The compound further showed a Random, DPC micelles in data set [2] of 34.6%. This compound yielded a β-Sheet, DPC micelles in data set [3] of 35.8%. The compound further displayed a Random, SDS micelles in data set [4] of 31.9%. In data set [5], this compound returned a β-Sheet, SDS micelles of 40.4%. The β-Turn, SDS micelles in [6] worked out at 21.3%. Besides, the α-Helix, aqueous solution in data set [7] stood at 5.6%. The same compound came in with a β-Turn, DPC micelles in data set [8] of 22%. Moreover, the α-Helix, DPC micelles in data set [9] was 7.6%. In data set [10], this compound came in with a α-Helix, SDS micelles of 6.5%. Moreover, the β-Turn, aqueous solution in [11] worked out at 22%.
